Data taken from US4452778A, “Synergistic antibacterial compositions and method of treatment of infections caused by multiple antibiotic-resistant organisms” (Eli Lilly and Company, priority 1981, dated 1984).
Where two headings read alike, the source gives them in different places.

Legend:
Pseudomonas aeruginosa = assay: Checkerboard broth dilution synergy study (mic); type: cell-based; conditions: Table II; for MIC: Pseudomonas aeruginosa, read-out: mic, drug alone
Serratia marcescens = assay: Checkerboard broth dilution synergy study (mic); type: cell-based; conditions: Table II; for MIC: Serratia marcescens, read-out: mic, drug alone
Klebsiella pneumoniae = assay: Checkerboard broth dilution synergy study (mic); type: cell-based; conditions: Table II; for MIC: Klebsiella pneumoniae, read-out: mic, drug alone
E. cloacae = assay: Checkerboard broth dilution synergy study (mic); type: cell-based; conditions: Table II; for MIC: Enterobacter cloacae, read-out: mic, drug alone
[1] = cited from earlier work; for mean serum concentration: end of injection
Proteus mirabilis = assay: Checkerboard broth dilution synergy study (mic); type: cell-based; conditions: Proteus mirabilis; Table II, strain Allen; read-out: mic, drug alone
E. coli = assay: Checkerboard broth dilution synergy study (mic); type: cell-based; conditions: Table II; for MIC: Escherichia coli, read-out: mic, drug alone
Proteus rettgeri = assay: Checkerboard broth dilution synergy study (mic); type: cell-based; conditions: Providencia rettgeri, Table II, strain 65; read-out: mic, drug alone
Proteus vulgaris = assay: Checkerboard broth dilution synergy study (mic); type: cell-based; conditions: Proteus vulgaris, Table II, read-out: mic, drug alone

In the case of `CCN1CCN(C(=O)N[C@@H](C(=O)N[C@@H]2C(=O)N3[C@@H]2SC(C)(C)[C@@H]3C(=O)O)c2ccccc2)C(=O)C1=O` [piperacillin, sodium 6-(D(-)-α-(4-ethyl-2,3-dioxo-1-piperazinylcarbonylamino)-α-phenylacetamido]penicillinate], the MIC (Pseudomonas aeruginosa; strain 84) is reported as 64 µg/mL, the MIC (Pseudomonas aeruginosa; strain 366) is reported as > 128 µg/mL and the MIC (Pseudomonas aeruginosa; strain 424) is reported as > 128 µg/mL. For the same compound, the MIC (Pseudomonas aeruginosa; strain 447) was > 128 µg/mL, the MIC (Pseudomonas aeruginosa; strain 1484) was 64 µg/mL and the MIC (Pseudomonas aeruginosa; strain Davis) was > 64 µg/mL. The “mic of each drug in combination I + P” value (Pseudomonas aeruginosa; strain 84) was 4 µg/mL, the “mic of each drug in combination I + P” value (Pseudomonas aeruginosa; strain 366) was 16 µg/mL and the “mic of each drug in combination I + P” value (Pseudomonas aeruginosa; strain 424) was 0.5 µg/mL. The “mic of each drug in combination I + P” value (Pseudomonas aeruginosa; strain 447) was 0.5 µg/mL, the “mic of each drug in combination I + P” value (Pseudomonas aeruginosa; strain 1484) was 8 µg/mL and the “mic of each drug in combination I + P” value (Pseudomonas aeruginosa; strain Davis) was 16 µg/mL. For the same compound, the MIC (Serratia marcescens; strain 100) was > 64 µg/mL, the MIC (Serratia marcescens; strain 302-2) was > 64 µg/mL and the MIC (Serratia marcescens; strain 796) was > 64 µg/mL. The MIC (Serratia marcescens; strain 14142) was > 64 µg/mL, the MIC (Serratia marcescens; strain Townsend) was > 64 µg/mL and the “mic of each drug in combination I + P” value (Serratia marcescens; strain 100) was 32 µg/mL. For the same compound, the “mic of each drug in combination I + P” value (Serratia marcescens; strain 302-2) was 8 µg/mL, the “mic of each drug in combination I + P” value (Serratia marcescens; strain 796) was 4 µg/mL and the “mic of each drug in combination I + P” value (Serratia marcescens; strain 14142) was 8 µg/mL. The “mic of each drug in combination I + P” value (Serratia marcescens; strain Townsend) was 64 µg/mL, the MIC (Klebsiella pneumoniae; strain 130) was > 64 µg/mL and the MIC (Klebsiella pneumoniae; strain 214-1) was > 64 µg/mL. The MIC (Klebsiella pneumoniae; strain 463) was > 64 µg/mL, the MIC (Klebsiella pneumoniae; strain 512) was > 64 µg/mL and the MIC (Klebsiella pneumoniae; strain 933) was > 64 µg/mL. The MIC (Klebsiella pneumoniae; strain 1204-2) was > 64 µg/mL, the “mic of each drug in combination I + P” value (Klebsiella pneumoniae; strain 214-1) was 8 µg/mL and the “mic of each drug in combination I + P” value (Klebsiella pneumoniae; strain 463) was 16 µg/mL. The “mic of each drug in combination I + P” value (Klebsiella pneumoniae; strain 512) was 32 µg/mL, the “mic of each drug in combination I + P” value (Klebsiella pneumoniae; strain 1204-2) was 2 µg/mL and the MIC (E. cloacae; strain 1246) was > 64 µg/mL. For the same compound, the MIC (E. cloacae; strain 1253) was > 64 µg/mL, the MIC (E. cloacae; strain 1415) was > 64 µg/mL and the MIC (E. cloacae; strain B293) was > 64 µg/mL. The “mic of each drug in combination I + P” value (E. cloacae; strain 1253) was 32 µg/mL, the “mic of each drug in combination I + P” value (E. cloacae; strain B293) was 16 µg/mL and the “mean peak serum concentration” value ([1]; single intramuscular dose 0.5 g) was 4.9 µg/mL. For the same compound, the “mean peak serum concentration” value ([1]; single intramuscular dose 1.0 g) was 13.3 µg/mL, the “mean peak serum concentration” value ([1]; single intramuscular dose 2.0 g) was 30.2 µg/mL and the mean serum concentration ([1]; single intravenous bolus 1.0 g) was 70.7 µg/mL. For the same compound, the mean serum concentration ([1]; single intravenous bolus 2.0 g) was 199.5 µg/mL, the mean serum concentration ([1]; single intravenous bolus 4.0 g) was 330.7 µg/mL and the mean serum concentration ([1]; single intravenous bolus 6.0 g) was 451.8 µg/mL. For the same compound, the MIC (Proteus mirabilis) was > 64 µg/mL, the MIC (E. coli; strain 46-2) was > 64 µg/mL and the MIC (E. coli; strain 77-3) was > 64 µg/mL. For the same compound, the MIC (E. coli; strain 136-3) was > 64 µg/mL, the MIC (E. coli; strain 1260) was > 64 µg/mL and the MIC (E. coli; strain 1262) was > 64 µg/mL. The MIC (E. coli; strain Briley) was > 64 µg/mL, the MIC (E. coli; strain Dill) was 32 µg/mL and the “mic of each drug in combination I + P” value (E. coli; strain 46-2) was 2 µg/mL. The “mic of each drug in combination I + P” value (E. coli; strain 1253) was 4 µg/mL, the “mic of each drug in combination I + P” value (E. coli; strain 1262) was 64 µg/mL and the “mic of each drug in combination I + P” value (E. coli; strain 1415) was 2 µg/mL. For the same compound, the “mic of each drug in combination I + P” value (E. coli; strain Briley) was 32 µg/mL, the MIC (Proteus rettgeri) was 64 µg/mL and the MIC (Proteus vulgaris; strain 363) was > 64 µg/mL. The MIC (Proteus vulgaris; strain Shide) was > 64 µg/mL.
